Measured values from ChEMBL document CHEMBL5727957, “1H-pyrazolo[4,3-b]pyridines as PDE1 inhibitors” (2020).

Experiments:
[1] = molecular target: Dual specificity calcium/calmodulin-dependent 3',5'-cyclic nucleotide phosphodiesterase 1C (Homo sapiens, UniProt Q14123); assay: Inhibition Assay: PDE1A, PDE1B and PDE1C assays were performed as follows: the assays were performed in 60 μL samples containing a fixed amount of the PDE1 enzyme (sufficient to convert 20-25% of the cyclic nucleotide substrate), a buffer (50 mM HEPES pH 7.6; 10 mM MgCl2; 0.02% Tween20), 0.1 mg/ml BSA, 15 nM tritium labelled cAMP and varying amounts of inhibitors. Reactions were initiated by …
Description: (§1) Reactions were initiated by addition of the cyclic nucleotide substrate, and reactions were allowed to proceed for 1 hr at room temperature before being terminated through mixing with 20 μL (0.2 mg) yttrium silicate SPA beads (PerkinElmer).

[2] = molecular target: Dual specificity calcium/calmodulin-dependent 3',5'-cyclic nucleotide phosphodiesterase 1A (Homo sapiens, UniProt P54750); assay: as above
Sequence of Dual specificity calcium/calmodulin-dependent 3',5'-cyclic nucleotide phosphodiesterase 1A (P54750 whole entry): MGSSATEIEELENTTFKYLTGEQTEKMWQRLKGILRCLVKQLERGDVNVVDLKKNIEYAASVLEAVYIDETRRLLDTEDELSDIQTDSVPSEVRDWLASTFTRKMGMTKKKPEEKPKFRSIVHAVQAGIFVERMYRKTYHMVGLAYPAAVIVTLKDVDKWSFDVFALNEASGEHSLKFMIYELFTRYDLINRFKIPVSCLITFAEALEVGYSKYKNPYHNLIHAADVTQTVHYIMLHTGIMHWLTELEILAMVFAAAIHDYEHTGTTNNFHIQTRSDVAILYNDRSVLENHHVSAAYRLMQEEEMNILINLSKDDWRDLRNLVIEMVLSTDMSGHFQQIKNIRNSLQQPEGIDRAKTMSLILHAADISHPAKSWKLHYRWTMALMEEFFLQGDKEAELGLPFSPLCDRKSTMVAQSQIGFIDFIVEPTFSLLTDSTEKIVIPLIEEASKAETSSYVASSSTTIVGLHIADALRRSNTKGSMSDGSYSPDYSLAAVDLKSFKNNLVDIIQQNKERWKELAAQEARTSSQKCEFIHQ
Description: as §1

Sequence of Dual specificity calcium/calmodulin-dependent 3',5'-cyclic nucleotide phosphodiesterase 1C (Q14123 whole entry): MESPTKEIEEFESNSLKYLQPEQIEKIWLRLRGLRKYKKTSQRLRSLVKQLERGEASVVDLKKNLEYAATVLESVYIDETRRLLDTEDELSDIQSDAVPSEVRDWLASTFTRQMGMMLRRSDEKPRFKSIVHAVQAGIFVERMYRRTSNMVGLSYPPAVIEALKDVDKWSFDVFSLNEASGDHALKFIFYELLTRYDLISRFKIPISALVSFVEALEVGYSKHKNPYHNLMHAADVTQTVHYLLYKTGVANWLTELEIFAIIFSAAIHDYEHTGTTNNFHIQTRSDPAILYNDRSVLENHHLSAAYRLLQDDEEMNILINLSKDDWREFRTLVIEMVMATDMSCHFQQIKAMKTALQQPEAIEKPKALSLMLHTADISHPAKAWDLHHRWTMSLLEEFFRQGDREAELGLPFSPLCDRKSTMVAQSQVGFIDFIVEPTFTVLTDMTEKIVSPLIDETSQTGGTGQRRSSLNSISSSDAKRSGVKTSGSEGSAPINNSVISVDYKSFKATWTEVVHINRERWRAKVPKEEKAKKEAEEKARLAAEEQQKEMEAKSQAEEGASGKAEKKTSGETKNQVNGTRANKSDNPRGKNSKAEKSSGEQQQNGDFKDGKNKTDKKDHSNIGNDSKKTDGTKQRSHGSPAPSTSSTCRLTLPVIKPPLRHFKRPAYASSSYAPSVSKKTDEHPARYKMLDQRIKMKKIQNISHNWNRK

CCOc1ncccc1-c1cc(NCc2cccc3ocnc23)c2c(n1)c(C)nn2C(C)C
IC50 [1]: 39 nM
IC50 [2]: 14 nM

CCOc1ncccc1-c1cc(NCc2cccn3c(C)nnc23)c2c(n1)c(C)nn2C(C)C
IC50 [1]: 6.1 nM
IC50 [2]: 3 nM
